Measured values: ChEMBL document CHEMBL3396964, “SAH derived potent and selective EZH2 inhibitors” (Bioorg Med Chem Lett, 2015)
The source made the active and inactive calls. The calls are words filed in the database; no cut-off is given here.

Assays:
[1] = molecular target: Histone-lysine N-methyltransferase EZH2 (Homo sapiens, UniProt O75530+Q09028+Q15022+Q15910, Y641N); assay: Inhibition of N-terminally FLAG-tagged EZH2 Y641N mutant in EZH2/SUZ12/EED/RbAp48 complex (unknown origin) expressed in baculovirus infected in SF9 cells assessed as inhibition of methylation of nucleosomes at H3K27 by scintillation counting in presence of [3H]SAM
[2] = molecular target: Histone-lysine N-methyltransferase EZH2 (Homo sapiens) (UniProt Q15910); assay: Inhibition of EZH2 (unknown origin) at 100 uM by cell-based assay
[3] = Permeability across MDCK2 cells; format: ADME, cell-based, Canis lupus familiaris, MDCK-II; conditions: dog, MDCK; read-out: permeability
[4] = molecular target: T1, Histone-lysine N-methyltransferase EHMT2 (Homo sapiens, UniProt Q96KQ7); assay: Inhibition of G9a (unknown origin) by HMT assay
T1 sequence (Q96KQ7 whole entry): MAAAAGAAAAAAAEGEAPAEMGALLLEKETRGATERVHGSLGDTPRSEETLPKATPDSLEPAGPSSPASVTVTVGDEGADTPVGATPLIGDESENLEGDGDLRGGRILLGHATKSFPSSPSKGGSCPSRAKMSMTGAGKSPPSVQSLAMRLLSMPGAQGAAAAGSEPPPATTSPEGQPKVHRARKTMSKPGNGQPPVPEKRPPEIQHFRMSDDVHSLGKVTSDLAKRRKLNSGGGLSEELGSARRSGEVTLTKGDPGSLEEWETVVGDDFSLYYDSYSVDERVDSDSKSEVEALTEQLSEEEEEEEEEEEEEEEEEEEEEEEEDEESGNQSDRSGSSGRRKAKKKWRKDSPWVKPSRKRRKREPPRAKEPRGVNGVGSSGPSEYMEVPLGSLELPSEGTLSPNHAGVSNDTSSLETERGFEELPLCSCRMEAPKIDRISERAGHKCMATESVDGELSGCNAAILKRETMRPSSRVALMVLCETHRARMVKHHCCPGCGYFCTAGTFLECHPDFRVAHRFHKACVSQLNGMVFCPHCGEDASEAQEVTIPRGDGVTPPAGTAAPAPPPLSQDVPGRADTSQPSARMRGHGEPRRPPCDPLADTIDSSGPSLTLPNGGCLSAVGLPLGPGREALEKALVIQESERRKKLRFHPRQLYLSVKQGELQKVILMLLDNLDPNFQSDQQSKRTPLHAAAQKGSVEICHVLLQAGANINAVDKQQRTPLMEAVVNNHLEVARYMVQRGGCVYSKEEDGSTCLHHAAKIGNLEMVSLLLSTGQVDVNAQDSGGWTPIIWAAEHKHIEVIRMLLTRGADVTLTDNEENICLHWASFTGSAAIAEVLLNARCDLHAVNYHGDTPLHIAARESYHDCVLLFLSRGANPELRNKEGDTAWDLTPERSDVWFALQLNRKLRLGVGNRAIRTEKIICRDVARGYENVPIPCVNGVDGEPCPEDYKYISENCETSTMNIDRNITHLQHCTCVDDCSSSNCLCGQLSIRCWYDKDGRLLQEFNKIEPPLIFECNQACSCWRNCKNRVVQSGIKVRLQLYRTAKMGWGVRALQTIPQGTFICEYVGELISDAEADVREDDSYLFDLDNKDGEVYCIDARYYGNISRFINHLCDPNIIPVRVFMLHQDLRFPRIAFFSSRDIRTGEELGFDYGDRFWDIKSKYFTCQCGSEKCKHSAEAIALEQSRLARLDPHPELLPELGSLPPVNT

[5] = molecular target: Histone-lysine N-methyltransferase 2A (Homo sapiens, UniProt Q03164); assay: Inhibition of MLL (unknown origin) by HMT assay
[6] = molecular target: T2, Histone-lysine N-methyltransferase SETD7 (Homo sapiens, UniProt Q8WTS6); assay: Inhibition of SETD7 (unknown origin) by HMT assay
T2 sequence (Q8WTS6 whole entry): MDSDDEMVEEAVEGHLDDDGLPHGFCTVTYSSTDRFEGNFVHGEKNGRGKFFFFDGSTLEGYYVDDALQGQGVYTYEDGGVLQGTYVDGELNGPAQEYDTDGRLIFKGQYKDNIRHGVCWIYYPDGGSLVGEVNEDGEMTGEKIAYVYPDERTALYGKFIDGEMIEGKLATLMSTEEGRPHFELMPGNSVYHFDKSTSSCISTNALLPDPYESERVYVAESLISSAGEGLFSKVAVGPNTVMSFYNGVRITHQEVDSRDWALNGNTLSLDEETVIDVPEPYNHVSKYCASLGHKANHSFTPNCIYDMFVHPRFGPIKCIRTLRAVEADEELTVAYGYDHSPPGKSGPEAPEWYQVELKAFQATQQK

[7] = molecular target: T3, Histone-lysine N-methyltransferase SUV39H2 (Homo sapiens, UniProt Q9H5I1); assay: Inhibition of SUV39H2 (unknown origin) by HMT assay
[8] = molecular target: T4, N-lysine methyltransferase SMYD2 (Homo sapiens, UniProt Q9NRG4); assay: Inhibition of SMYD2 (unknown origin) by HMT assay
[9] = molecular target: T5, Histone-lysine N-methyltransferase EHMT2 (Homo sapiens) (UniProt Q96KQ7); assay: Inhibition of G9a (unknown origin) at 10 uM by HMT assay
T5 sequence (whole entry): T1 sequence (Q96KQ7 whole entry)

[10] = molecular target: T3, Histone-lysine N-methyltransferase SUV39H2; assay: Inhibition of SUV39H2 (unknown origin) at 10 uM by HMT assay
[11] = molecular target: T4, N-lysine methyltransferase SMYD2; assay: Inhibition of SMYD2 (unknown origin) at 10 uM by HMT assay
[12] = molecular target: T6, Histone-lysine N-methyltransferase SETD7 (Homo sapiens) (UniProt Q8WTS6); conditions: 10 uM
T6 sequence (whole entry): T2 sequence (Q8WTS6 whole entry)
Description: Inhibition of SETD7 (unknown origin) at 10 uM by HMT assay

[13] = molecular target: Histone-lysine N-methyltransferase SETDB1 (Homo sapiens, UniProt Q15047); conditions: 10 uM
Description: Inhibition of SETDB1 (unknown origin) at 10 uM by HMT assay

[14] = molecular target: Histone-lysine N-methyltransferase KMT5C (Homo sapiens, UniProt Q86Y97); conditions: 10 uM
Sequence of Histone-lysine N-methyltransferase KMT5C (Q86Y97 whole entry, looked up): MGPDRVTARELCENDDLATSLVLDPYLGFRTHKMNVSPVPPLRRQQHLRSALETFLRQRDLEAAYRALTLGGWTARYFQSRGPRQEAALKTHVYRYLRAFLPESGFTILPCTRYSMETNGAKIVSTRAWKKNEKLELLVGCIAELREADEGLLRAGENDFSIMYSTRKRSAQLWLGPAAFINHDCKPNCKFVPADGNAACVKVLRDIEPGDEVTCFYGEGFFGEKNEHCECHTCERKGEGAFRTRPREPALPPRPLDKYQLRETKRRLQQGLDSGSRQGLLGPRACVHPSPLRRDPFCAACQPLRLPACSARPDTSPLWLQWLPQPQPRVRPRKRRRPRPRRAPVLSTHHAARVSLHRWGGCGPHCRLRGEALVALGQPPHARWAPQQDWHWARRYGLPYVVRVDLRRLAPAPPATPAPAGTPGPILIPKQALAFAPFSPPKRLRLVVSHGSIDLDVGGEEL
Description: Inhibition of SUV420H2 (unknown origin) at 10 uM by HMT assay

T3 sequence (Q9H5I1 whole entry): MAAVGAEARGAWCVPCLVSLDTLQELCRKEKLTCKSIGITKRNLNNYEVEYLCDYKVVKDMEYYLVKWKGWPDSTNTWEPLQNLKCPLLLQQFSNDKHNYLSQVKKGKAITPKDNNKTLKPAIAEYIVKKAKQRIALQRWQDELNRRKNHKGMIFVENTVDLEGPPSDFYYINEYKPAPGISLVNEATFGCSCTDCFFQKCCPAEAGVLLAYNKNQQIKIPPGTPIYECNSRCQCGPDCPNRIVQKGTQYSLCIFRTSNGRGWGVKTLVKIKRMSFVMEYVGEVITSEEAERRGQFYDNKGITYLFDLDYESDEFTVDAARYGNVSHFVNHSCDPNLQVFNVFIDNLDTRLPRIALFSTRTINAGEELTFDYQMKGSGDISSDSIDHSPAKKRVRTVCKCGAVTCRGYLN
T4 sequence (Q9NRG4 whole entry): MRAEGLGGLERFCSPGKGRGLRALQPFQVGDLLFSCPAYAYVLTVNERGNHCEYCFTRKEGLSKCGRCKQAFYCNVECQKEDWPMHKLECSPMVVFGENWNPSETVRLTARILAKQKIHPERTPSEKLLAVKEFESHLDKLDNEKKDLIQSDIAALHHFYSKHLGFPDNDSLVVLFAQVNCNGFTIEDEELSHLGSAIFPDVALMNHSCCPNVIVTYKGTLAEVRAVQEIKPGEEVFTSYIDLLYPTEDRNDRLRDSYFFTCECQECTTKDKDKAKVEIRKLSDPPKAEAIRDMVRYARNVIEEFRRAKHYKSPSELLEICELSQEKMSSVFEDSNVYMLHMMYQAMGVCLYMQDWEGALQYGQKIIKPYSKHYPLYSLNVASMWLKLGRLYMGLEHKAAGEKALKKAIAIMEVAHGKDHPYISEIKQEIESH
Sequence of Histone-lysine N-methyltransferase EZH2 (Q15910 whole entry Y641N, one chain of several): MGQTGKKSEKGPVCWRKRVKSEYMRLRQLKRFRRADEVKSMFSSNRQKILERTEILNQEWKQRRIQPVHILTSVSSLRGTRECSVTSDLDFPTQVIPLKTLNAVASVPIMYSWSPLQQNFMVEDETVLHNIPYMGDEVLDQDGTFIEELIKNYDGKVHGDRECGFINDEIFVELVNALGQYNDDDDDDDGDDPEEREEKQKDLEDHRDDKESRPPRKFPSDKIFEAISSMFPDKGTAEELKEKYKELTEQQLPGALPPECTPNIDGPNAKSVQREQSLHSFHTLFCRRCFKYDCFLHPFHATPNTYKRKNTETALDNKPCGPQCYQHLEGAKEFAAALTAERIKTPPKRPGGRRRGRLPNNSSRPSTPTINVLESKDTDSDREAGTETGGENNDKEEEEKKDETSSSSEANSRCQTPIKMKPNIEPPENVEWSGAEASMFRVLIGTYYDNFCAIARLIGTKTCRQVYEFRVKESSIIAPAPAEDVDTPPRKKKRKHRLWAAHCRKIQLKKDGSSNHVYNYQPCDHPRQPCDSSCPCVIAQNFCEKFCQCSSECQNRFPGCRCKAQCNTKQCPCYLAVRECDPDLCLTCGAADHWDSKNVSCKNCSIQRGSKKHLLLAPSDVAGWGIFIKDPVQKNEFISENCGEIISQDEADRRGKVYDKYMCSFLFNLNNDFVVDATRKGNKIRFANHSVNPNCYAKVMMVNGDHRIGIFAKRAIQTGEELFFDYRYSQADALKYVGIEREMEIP
Sequence of Histone-lysine N-methyltransferase EZH2 (Homo sapiens) (Q15910 whole entry, looked up): as the sequence (Q15910 whole entry Y641N, one chain of several) above, with N641Y counted along it

Nc1ncnc2c1ncn2[C@@H]1O[C@H](CSCC[C@H](N)C(=O)NCc2cc(-c3ccccc3)[nH]n2)[C@@H](O)[C@H]1O
IC50 [1]: 0.07 µM | inhibition [2]: inactive | Papp [3]: 1 ×10⁻⁶ cm/s | IC50 [4]: > 100 µM | IC50 [5]: 18.5 µM | IC50 [6]: > 100 µM | IC50 [7]: > 100 µM | IC50 [8]: > 100 µM | inhibition [9]: 20% | inhibition [10]: 20% | inhibition [11]: inactive | inhibition [12]: inactive | inhibition [13]: inactive | inhibition [14]: inactive
